Assay results: patent US20060046976A1, “Method for increasing the bone mineral density and bone micro-architecture or connectivity of a mammal using N-acylated glucosamines” (priority 2004, published 2006)

Legend:
[1] = tested on: non-ovariectomised animals; assay: BMD by DXA in non-ovariectomised rats fed GlcNBu; type: in vivo, rat; conditions: 200 mg GlcNBu daily, not statistically significant, data not shown
Protocol: (§1) Sixteen ovariectomised rats (Charles River Laboratories), approximately 200 g in weight, were randomized into two groups. The control group received 200 mg of glucose, by mouth as single daily doses and the GlcNBu-treated group received 200 mg of GlcNBu by mouth, as single daily doses, for a total period of six (6) months. A similar group of non-ovariectomised animals was fed with GlcNBu or glucose at the same doses. The feeding of the compounds was done in small amounts of peanut butter which was very acceptable to the rats, which were allowed free access to water and rat chow. The animals had the BMDs of the femurs (total or global BMD) and the lumbar spines were estimated at baseline and then at, approximately 2, 4 and 6 months. Consistent position of the femurs was assured with a pre-determined grid. A Hologic 4500 DXA machine, with small animal software, was employed for the study. The animals were lightly anesthetized for each measurement.

ovariectomised rats = assay: Wet weight of femurs, ovariectomised rats; type: in vivo, rat; conditions: ovariectomised animals, oral feeding of GlcNBu, 6 months
Protocol: as §1
At the end of the experiment, the animals were sacrificed, plasma was collected by cardiac puncture, and the femurs removed, fully dissected from adherent tissue and the wet weight was determined. The concentrations of Insulin-like Growth factor I (IGF-1) in the plasma, obtained at the end of the experiment, were determined by a commercial immunological method.

SCW-arthritis rats [2] = assay: BMD by DXA of femurs and tibias in SCW-arthritis rats; type: in vivo, Lewis type rats; conditions: 6 weeks
Source text: (§2) In this experiment performed and described herein, there were four groups of Lewis type rats, consisting of eight (8) animals in each group. Lewis type rats had experimental arthritis induced by a single intra-peritoneal injection of streptococcal cell wall antigen (SCW). This type of arthritis has an acute and chronic phase and affects mostly the distal joints in the hind limbs of the animals, and, less so, the knees and hips. Groups 1-3, inclusive, had inflammatory arthritis induced. The compound used in the experiment was used to supplement normal rat chow feed on a daily basis. Feed and water were unrestricted. Group I feed was supplemented with the compound shown in formula II, abbreviated as GlcNBu, at a dose of 200mg/kg/day. […] All the dissected femurs and tibiae were scanned with dual energy x-ray absorptiometry (DXA) were measured at the distal femur, and proximal tibia using a user defined region of interest (ROI). • Micro-CT imaging protocol. […] The reconstructed tibia images were analyzed with MicroView 2.0 software (GE Healthcare, London, ON) in two and three dimensions. • Three-dimensional trabecular bone measurements. […] On 3D analysis, the tissue volume (3D-TV, mm3) and trabecular bone volume (3D-BV, mm3) were measured directly, and the fractional trabecular bone volume (3D-BV/TV, %) was calculated. […]

SCW-arthritis rats [3] = assay: Three-dimensional isosurface of tibia (bone erosion), SCW-arthritis rats; type: in vivo, Lewis type rats; conditions: GlcNBu treated, especially high dose
Source text: as §2, with “unrestricted.” for “unrestricted. Group I feed was supplemented with the compound shown in formula II, abbreviated as GlcNBu, at a dose of 200mg/kg/day.”

For CCCC(=O)N[C@H]1C(O)O[C@H](CO)[C@@H](O)[C@@H]1O (stereo partly drawn) [GlcNBu, N-butyryl-D-glucosamine], which “BMD at the sites measured vs glucose-fed animals” value [1] is on record?
Its value is “higher trends in the BMD”.

And the femoral wet weight (ovariectomised rats)?
The femoral wet weight was “increases femoral wet weight”.

And the “BMD femurs and tibias, Group I (GlcNBu 200 mg) vs Group 3 (GlcNBu 20 mg)” value (SCW-arthritis rats [2]; 200 mg/kg/day in feed)?
Its value is “much greater”.

What about the “BMD differences between Group 1 (GlcNBu 200 mg) and other Groups” value (SCW-arthritis rats [2]; 200 mg/kg/day) of the same molecule?
The value was “Statistical significance of the differences was achieved”.

And the “bone erosion at the joint margin (isosurfaces)” value (SCW-arthritis rats [3])?
The value was “effectively protects bone from further erosion”.
